The nature of this data set: Photostability in natural sunlight: residual sunscreen active by HPLC, 2 mg/cm^2 film on microscope slides. The data set is classed as physicochemical. Conditions: for Residual Octisalate, Residual %: natural sunlight as in Example 1, formula not named (context: Formula 5). As to the method: As described above, a sunscreen composition of SPF X is considered to be “photostable” when at least 70%, preferably at least 75%, more preferably at least 80% of each sunscreen active in the composition remains after exposure of the composition to Y SEDS of natural sunlight, where Y is about ½ X. “Photostability” is assessed by (i) assaying the pre-UVR exposure concentration of each sunscreen active present in the sunscreen composition by high-performance liquid chromatography (“HPLC”); (ii) applying a sample of the sunscreen composition at a concentration of 2 mg/cm^2 (a standard concentration used in SPF testing) to a non-coated microscope slide or similar non-reactive surface (e.g., glass or quartz plate); (iii) irradiating the sample in natural sunlight according to a dosing regimen as illustrated in Table 1; (iv) assaying the concentration of each sunscreen active post-UVR exposure. More specifically, after the desired UVR exposure, each slide is removed from sunlight and placed in a sealed Blue Max™ polypropylene conical tube (Becton Dickinson) or similar container, and stored in an area to prevent further exposure to natural sunlight. When an irradiation series is completed, the residual content of each sunscreen active is determined via HPLC, such as the Perkin Elmer Model 200, equipped with a 785 UVN detector, and a C18 column. A detector wavelength of 310 nm and an eluent solution of […] may be used. The sunscreen composition is extracted from the slide with isopropanol or other suitable solvent and sonicated for a minimum of 10 minutes to completely solubilize the sunscreen actives. The solution is then filtered with a 0.45 um GHP13 mm syringe filter. The above analytical procedure may be modified in a manner that would be obvious to the person of ordinary skill in the art. To compare the photostability of Formulas 1 and 2, a uniform 2 mg/cm^2 film of sunscreen product was placed on multiple microscope slides. The slides were exposed to direct sunlight for time intervals corresponding to 1, 2, 4, 8, and 16 SEDs as measured by a Solar Light PMA 2100 detector. (Unless otherwise indicated, all sunlight exposures were in Ormond Beach, Fla.). Slides were removed from the sun after the desired exposure and stored in Blue Max™ polypropylene conical tubes. Upon completion of the test series, samples were dissolved in a suitable solvent, sonicated and then assayed via HPLC. Unless otherwise indicated, all assays were performed by HPLC with oxybenzone, if present, as the internal standard.

With `CCCCC(CC)COC(=O)c1ccccc1O` (stereo not drawn) [Octisalate], under “exposed to natural sunlight as in Example 1”, the “Photostability of octisalate” value is reported as “photolabile”. Besides, the “Residual Octisalate, Residual %” value runs as follows: (1 SED) 96%; (2 SEDs) 100%; (4 SEDs) 92%; (8 SEDs) 80%; (16 SEDs) 55%.

(Values after patent publication US20050025727A1, “Natural sunlight photostable composition” (priority 2003, published 2005).)
